Publication PMC8413904 (Pharmacology Research & Perspectives, 2021)

Assays:
[1] = tested on: cultured rat brain cerebellar neurons; assay: Na^+ assay (CoroNa green‐AM); assay type: cell-based
Experimental: (§1) All animal experimental procedures and housing have been approved by the Institutional Animal Care and Use Committee (IACUC) protocol #18‐015 of Virginia Tech. Embryonic day 18 (E18) rat brain tissue samples were obtained from adult pregnant SD rats. Rat brain primary cortical, striatal, and cerebellar neurons were cultured on poly‐d‐lysine coated 96‐well plates for 14 days in vitro (DIV14) before using for the experiments. Primary rat neuron culture was performed as previously published.[44] Briefly, each well of a 96 well plate was loaded with 50 000 cells and grown in 200 µl neurobasal media supplemented with B27, glutamax, penicillin, streptomycin. One hundred microliters of media was replaced with fresh media once in 4 days. Eight to thirteen fetus were obtained from each pregnant rat. Brain tissue from these fetus were pooled to obtain the neurons. Cortical, striatal, and cerebellar neuron assays were carried out at different time points.
(§2) For Na^+ assay, DIV14 neurons were washed with HBSS and treated with freshly prepared CoroNa green‐AM dye (ThermoFisher, cat # C36676) and incubated for 45 min in 37°C. Plates were washed twice with HBSS before adding drug solutions dissolved in HBSS, and read at 492/516 nm (ex/em) using a plate reader. RFU values of background control and treatments were plotted to identify the effect of CNS4 on NMDA‐induced Na^+ flux in the neurons.

[2] = tested on: cultured rat brain striatal neurons; assay: Na^+ assay (CoroNa green‐AM); assay type: cell-based; conditions: 0.3 µM NMDA plus 100 µM CNS4; highest level
Experimental: as §1, §2

GluN1/2D = GluN1/2D (UniProt O15399+P35439); assay: Current–voltage (I–V) relationship, TEVC in xenopus oocytes
Chain of GluN1/2D (O15399 28-1336, other chains not shown): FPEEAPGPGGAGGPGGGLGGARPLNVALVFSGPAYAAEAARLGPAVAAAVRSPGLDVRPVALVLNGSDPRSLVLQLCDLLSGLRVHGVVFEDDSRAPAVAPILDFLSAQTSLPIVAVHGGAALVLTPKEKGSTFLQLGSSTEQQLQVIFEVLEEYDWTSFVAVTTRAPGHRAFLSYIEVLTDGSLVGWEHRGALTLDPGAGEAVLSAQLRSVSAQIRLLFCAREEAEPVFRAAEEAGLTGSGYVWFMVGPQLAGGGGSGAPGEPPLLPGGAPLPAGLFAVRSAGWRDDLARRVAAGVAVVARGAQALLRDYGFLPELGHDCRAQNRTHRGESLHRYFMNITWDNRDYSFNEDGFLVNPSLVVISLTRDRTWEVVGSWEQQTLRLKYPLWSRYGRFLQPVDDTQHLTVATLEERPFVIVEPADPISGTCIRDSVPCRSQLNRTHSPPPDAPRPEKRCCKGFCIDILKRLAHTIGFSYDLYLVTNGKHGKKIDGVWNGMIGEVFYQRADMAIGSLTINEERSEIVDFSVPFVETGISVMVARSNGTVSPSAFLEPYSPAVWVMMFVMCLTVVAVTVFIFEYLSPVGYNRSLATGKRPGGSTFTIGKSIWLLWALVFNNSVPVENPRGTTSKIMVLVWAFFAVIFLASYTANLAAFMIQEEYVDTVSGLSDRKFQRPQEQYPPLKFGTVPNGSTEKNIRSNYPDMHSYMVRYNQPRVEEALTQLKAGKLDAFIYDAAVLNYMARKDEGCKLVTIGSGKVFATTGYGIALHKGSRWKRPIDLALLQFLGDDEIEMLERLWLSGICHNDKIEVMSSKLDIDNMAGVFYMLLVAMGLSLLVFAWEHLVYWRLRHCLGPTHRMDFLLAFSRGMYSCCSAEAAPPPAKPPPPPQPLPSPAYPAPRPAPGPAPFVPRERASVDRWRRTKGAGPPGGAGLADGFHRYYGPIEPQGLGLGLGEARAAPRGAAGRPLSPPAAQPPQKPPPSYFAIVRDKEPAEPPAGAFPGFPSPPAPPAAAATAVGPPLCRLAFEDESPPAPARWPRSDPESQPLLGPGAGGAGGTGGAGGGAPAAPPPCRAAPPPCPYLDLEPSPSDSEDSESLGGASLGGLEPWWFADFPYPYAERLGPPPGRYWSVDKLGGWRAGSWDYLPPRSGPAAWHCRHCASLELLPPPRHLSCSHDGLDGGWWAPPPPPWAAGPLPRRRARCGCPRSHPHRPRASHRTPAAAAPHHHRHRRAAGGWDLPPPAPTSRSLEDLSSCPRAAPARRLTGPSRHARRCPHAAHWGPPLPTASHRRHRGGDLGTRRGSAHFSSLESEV
Experimental: (§3) GluN1A, GluN2B, GluN2C, GluN2D, and GluN1/2A/2B cRNAs were mixed in a ratio of 1:1–3. 50 nl of the final cRNA mixture was microinjected (40–70 ng total) into the oocyte cytoplasm. Oocytes were incubated in ND‐96 solution at 18^◦C prior to electrophysiological recordings (1–3 days).
(§4) After obtaining a steady‐state response to different agonist applications, agonist plus 100 μM CNS4 or agonist plus 40 μM MgCl2 plus 100 μM CNS4 was applied. […] Data points were aligned by least‐square fit by third‐order polynomial equation (Y = B0 + B1*X +B2*X ^2 + B3*X ^3), except for GluN1/2B that needed a fourth‐order polynomial equation.

GluN1/2B [3] = biological target: T1, GluN1/2B (Rattus norvegicus, UniProt P35439+Q00960); assay: TEVC electrophysiology dose–response in xenopus oocytes; assay type: cell-based; parameters: SEP (super-ecliptic pHluorin); host or cells: Xenopus oocytes (cRNA injection); conditions: 100 µM CNS4; 0.3 µM glutamate + 100 µM glycine; −60 mV; average ± SEM
T1 sequence (Q00960 27-1482, other chains not shown): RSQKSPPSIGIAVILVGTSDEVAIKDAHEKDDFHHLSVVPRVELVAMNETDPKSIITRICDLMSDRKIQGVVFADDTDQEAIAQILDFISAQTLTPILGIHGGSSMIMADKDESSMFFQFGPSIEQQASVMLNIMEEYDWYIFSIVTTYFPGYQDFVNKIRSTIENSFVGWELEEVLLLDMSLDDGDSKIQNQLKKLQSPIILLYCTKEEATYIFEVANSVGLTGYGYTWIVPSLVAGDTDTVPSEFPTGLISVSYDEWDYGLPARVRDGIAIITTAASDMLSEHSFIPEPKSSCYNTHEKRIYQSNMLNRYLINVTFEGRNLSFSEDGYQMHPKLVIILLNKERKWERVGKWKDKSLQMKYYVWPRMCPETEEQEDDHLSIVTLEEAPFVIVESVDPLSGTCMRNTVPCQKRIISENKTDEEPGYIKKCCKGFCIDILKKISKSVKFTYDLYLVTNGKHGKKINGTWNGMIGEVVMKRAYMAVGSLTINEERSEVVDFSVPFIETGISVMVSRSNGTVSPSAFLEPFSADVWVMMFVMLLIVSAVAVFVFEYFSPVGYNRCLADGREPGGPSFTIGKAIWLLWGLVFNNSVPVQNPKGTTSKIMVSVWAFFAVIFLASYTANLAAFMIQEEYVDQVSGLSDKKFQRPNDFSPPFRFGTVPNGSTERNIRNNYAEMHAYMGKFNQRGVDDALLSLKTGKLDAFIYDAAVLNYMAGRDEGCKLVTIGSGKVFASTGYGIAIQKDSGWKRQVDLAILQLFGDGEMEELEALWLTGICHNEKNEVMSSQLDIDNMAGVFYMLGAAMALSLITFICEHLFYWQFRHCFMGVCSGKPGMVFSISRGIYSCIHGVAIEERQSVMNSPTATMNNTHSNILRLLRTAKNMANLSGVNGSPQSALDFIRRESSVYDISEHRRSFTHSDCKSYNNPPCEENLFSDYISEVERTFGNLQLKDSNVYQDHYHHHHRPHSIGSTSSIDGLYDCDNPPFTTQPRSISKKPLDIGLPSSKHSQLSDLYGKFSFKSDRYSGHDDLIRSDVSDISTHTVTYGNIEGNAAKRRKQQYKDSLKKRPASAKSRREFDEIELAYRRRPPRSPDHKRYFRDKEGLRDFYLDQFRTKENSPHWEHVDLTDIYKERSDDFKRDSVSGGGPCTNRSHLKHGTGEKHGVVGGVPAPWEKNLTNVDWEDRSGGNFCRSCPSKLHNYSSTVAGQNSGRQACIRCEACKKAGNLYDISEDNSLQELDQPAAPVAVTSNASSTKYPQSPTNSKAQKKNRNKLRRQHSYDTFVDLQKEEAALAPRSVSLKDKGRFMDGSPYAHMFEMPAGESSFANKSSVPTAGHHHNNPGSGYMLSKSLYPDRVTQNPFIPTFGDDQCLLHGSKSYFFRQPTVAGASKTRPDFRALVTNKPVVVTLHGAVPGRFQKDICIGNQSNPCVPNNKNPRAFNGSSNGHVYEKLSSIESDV
Description: (§5) NMDAR constructs: cDNA encoding the NMDAR1a subunit (GluN1a) was obtained from Dr. Nakanishi. cDNA encoding the GluN2B (pci_sepGluN2B) was developed initially in the Malinow lab[36] and purchased from Addgene (cat# 23998). cDNA encoding the GluN2C and GluN2D were purchased from GenScript. Mutated GluN1, 2A and 2B cDNA constructs capable of assembling as GluN1/2A/2B triheteromeric (1/2AB) receptors[37] were obtained from Dr. Paoletti (Laboratoire de Neurobiologie, CNRS). […] Plasmids were linearized with NotI (GluN1a) or Avrll (GluN2B), or BstB1 (GluN2C and GluN2D) and transcribed in vitro with T7 (GluN1a, GluN1/2A, GluN2B, GluN2C, & GluN2D) RNA polymerase using the mMessage mMachine transcription kits (Invitrogen by Thermo Fisher Scientific). […]
(§6) Electrophysiological responses were measured using a standard two‐microelectrode voltage‐clamp workstation [Warner Instruments (Hamden, Connecticut) model OC‐725C] designed to provide a fast clamp of large cells. […] Response magnitude was determined in xenopus oocytes expressing different NMDAR subunits (GluN1/2A, 1/2B, 1/2C, 1/2D, and 1/2A/2B) by the steady plateau response elicited by bath application of different agonist concentrations. […] Statistical significance was determined at the overall alpha level .05, using appropriate statistical methods as described in each figure captions.

GluN1/2A [4] = biological target: T2, GluN1/2A (UniProt P35439+Q12879); assay: Current–voltage (I–V) relationship, TEVC in xenopus oocytes
T2 sequence (Q12879 23-1464, other chains not shown): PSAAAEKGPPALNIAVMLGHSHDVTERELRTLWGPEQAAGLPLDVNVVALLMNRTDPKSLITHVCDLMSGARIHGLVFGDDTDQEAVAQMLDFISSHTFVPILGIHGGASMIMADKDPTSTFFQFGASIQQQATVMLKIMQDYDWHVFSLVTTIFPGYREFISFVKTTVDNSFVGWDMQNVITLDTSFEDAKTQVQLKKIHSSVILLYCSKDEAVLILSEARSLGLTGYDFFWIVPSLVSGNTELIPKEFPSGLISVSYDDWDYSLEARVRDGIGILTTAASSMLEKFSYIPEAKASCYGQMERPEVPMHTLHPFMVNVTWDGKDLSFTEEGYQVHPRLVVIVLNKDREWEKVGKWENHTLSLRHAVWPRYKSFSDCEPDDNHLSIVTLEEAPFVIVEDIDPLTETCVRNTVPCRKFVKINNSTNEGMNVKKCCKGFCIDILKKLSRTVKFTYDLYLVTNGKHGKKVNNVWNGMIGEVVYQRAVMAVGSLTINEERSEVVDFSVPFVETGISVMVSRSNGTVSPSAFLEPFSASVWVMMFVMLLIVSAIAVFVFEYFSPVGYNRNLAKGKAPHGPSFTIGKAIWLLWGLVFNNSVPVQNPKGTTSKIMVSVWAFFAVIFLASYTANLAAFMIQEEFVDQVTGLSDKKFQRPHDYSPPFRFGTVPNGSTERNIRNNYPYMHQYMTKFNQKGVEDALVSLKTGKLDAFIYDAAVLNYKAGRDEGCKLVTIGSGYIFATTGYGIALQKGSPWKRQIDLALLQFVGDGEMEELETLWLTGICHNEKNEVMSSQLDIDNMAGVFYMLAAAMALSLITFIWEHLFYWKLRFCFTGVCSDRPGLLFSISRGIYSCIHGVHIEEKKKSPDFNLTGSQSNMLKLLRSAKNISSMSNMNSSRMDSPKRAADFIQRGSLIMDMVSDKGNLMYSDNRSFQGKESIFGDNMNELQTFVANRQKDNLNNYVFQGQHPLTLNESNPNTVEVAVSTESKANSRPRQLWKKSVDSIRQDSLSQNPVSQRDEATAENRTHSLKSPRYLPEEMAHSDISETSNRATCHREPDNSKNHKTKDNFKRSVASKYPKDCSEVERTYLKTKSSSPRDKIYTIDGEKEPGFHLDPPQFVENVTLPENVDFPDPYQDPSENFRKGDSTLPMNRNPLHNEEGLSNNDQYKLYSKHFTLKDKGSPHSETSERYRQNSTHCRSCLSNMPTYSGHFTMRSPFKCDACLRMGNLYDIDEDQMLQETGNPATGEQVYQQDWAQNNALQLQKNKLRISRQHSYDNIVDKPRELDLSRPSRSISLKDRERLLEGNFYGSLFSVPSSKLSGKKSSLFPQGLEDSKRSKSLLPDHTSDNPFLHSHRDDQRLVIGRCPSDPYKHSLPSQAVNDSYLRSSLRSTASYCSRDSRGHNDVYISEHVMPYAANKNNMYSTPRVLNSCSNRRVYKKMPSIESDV
Experimental: as §3, §4

[5] = tested on: cultured rat brain cortical neurons; assay: Na^+ assay (CoroNa green‐AM); assay type: cell-based
Experimental: as §1
as §2, with “Plates were washed twice with HBSS before adding drug solutions dissolved in HBSS, and read at 492/516 nm (ex/em) using a plate reader.” left out

GluN1/2C [6] = biological target: T3, GluN1/2C (UniProt P35439+Q14957); assay: TEVC electrophysiology dose–response in xenopus oocytes; assay type: cell-based; parameters: host or cells: Xenopus oocytes (cRNA injection)
Description: as §5, §6

GluN1/2B [7] = biological target: T1, GluN1/2B; assay: Current–voltage (I–V) relationship, TEVC in xenopus oocytes
Experimental: as §3, §4

GluN1/2C [8] = biological target: T3, GluN1/2C; assay: as above
Experimental: as §3, §4

GluN1/2A [9] = biological target: T2, GluN1/2A; assay: TEVC electrophysiology dose–response in xenopus oocytes; assay type: cell-based; conditions: 100 µM CNS4, −60 mV, average ± SEM
Description: NMDAR constructs: cDNA encoding the NMDAR1a subunit (GluN1a) was obtained from Dr. Nakanishi. cDNA encoding the GluN2B (pci_sepGluN2B) was developed initially in the Malinow lab[36] and purchased from Addgene (cat# 23998). cDNA encoding the GluN2C and GluN2D were purchased from GenScript. Mutated GluN1, 2A and 2B cDNA constructs capable of assembling as GluN1/2A/2B triheteromeric (1/2AB) receptors[37] were obtained from Dr. Paoletti (Laboratoire de Neurobiologie, CNRS). […] Plasmids were linearized with NotI (GluN1a) or Avrll (GluN2B), or BstB1 (GluN2C and GluN2D) and transcribed in vitro with T7 (GluN1a, GluN1/2A, GluN2B, GluN2C, & GluN2D) RNA polymerase using the mMessage mMachine transcription kits (Invitrogen by Thermo Fisher Scientific).
Stage IV frog oocytes were obtained from Xenopus‐I. NMDAR subunit cRNAs were suspended in nuclease‐free sterile water. GluN1A, GluN2B, GluN2C, GluN2D, and GluN1/2A/2B cRNAs were mixed in a ratio of 1:1–3. 50 nl of the final cRNA mixture was microinjected (40–70 ng total) into the oocyte cytoplasm. Oocytes were incubated in ND‐96 solution at 18^◦C prior to electrophysiological recordings (1–3 days).
Electrophysiological responses were measured using a standard two‐microelectrode voltage‐clamp workstation [Warner Instruments (Hamden, Connecticut) model OC‐725C] designed to provide a fast clamp of large cells. The recording buffer contained 116 mM NaCl, 2 mM KCl, 0.3 mM BaCl2, and 5 mM HEPES, pH 7.4. Response magnitude was determined in xenopus oocytes expressing different NMDAR subunits (GluN1/2A, 1/2B, 1/2C, 1/2D, and 1/2A/2B) by the steady plateau response elicited by bath application of different agonist concentrations. […] Response amplitudes for functional NMDARs were generally between 0.1 and 2 μA. […] Dose–response relationships were fit to an appropriate curve‐fitting equation using GraphPad Prism‐7. Nonlinear regression was used to calculate EC50 and/or percentage maximal response. Curve fittings were done using the following equations as performed in the previous studies[34], [39]: Y = 100/(1 + 10^(LogEC50‐X)) or Y = Bottom + (Top − Bottom)/(1+10^(LogEC50‐X)). Statistical significance was determined at the overall alpha level .05, using appropriate statistical methods as described in each figure captions.

GluN1/2A [10] = biological target: T2, GluN1/2A; assay: Whole‐cell patch‐clamp electrophysiology in HEK293T cells; assay type: cell-based; parameters: expressed in transfected cells; host or cells: HEK-293 / HEK293T cells
Experimental: Whole‐cell patch‐clamp electrophysiology studies were carried out in the HEK‐293 cells, expressing recombinant NMDARs that lack native functional NMDARs.[40], [41], [42] Equal quantity of (1 µg) cDNA for GluN1a, GluN2 (A or B or C or D) subunits were co‐transfected 24–48 h before patch‐clamp electrophysiology assay. […] Cells were carefully washed before performing experiments and were used for the electrophysiology experiments after 24–48 h incubation at 37°C with 5%CO2. The whole‐cell patch‐clamp electrophysiology assay was performed using semi‐automated patch‐clamp equipment, Port‐a‐Patch (Nanion Technologies GmbH). Following are the constituents of various solutions used for patch‐clamp electrophysiology: internal solution [(mM) NaCl 10, EGTA 20, CsF 110, HEPES 10], Mg‐free external (recording) solution [(mM) NaCl 140, KCl 4, CaCl2 2, HEPES 10, D‐GlucoseMonohydrate 5], and Mg‐free seal enhancer solution [(mM) NaCl 80, KCl 3, CaCl2 35, HEPES 10]. Nanion NPC chips with […] resistance were used for the HEK‐293 cell recordings.

[11] = 100 µM CNS4, 100 µM glutamate + 100 µM glycine, −90 to +30 mv

In the case of `O=C(NC(=S)N1CCCCC1c1cccnc1)c1ccc(F)cc1` (stereo not drawn) [CNS4, 4‐fluoro‐N‐(2‐(pyridin‐3‐yl)piperidine‐1‐carbonothioyl)benzamide], the “Na^+ signal” value ([1]; 0.3 µM NMDA plus 100 µM CNS4, highest level) was 420668 rfu, the “Na^+ signal” value ([1]; 100 µM CNS4 alone, Figure 7C) was “significantly increased” and the “Na^+ signal” value [2] was 426039 rfu. For the same compound, the “inward current reversal potential” value (GluN1/2D; 0.3 µM glutamate + 100 µM glycine + CNS4, absence of Mg2+, without CNS4 -84.35± 0.42, p<0.0001, n=6) was -72.52±0.85 mv, the “inward current reversal potential” value (GluN1/2D; 0.3 µM glutamate + 100 µM glycine + CNS4, presence of Mg2+, without CNS4 -88.29± 0.35, p<0.0001, n=6) was -77.88±0.87 mv and the “voltage dependence of effect on current amplitude” value (from here on “voltage dependence of effect”) (GluN1/2D; [11]) was “no voltage dependence effect”. For the same compound, the reversal potential (GluN1/2D; agonist (100 µM glutamate + 100 µM glycine) + 40 µM MgCl2 + 100 µM CNS4, without CNS4 −75.8 ± 5.51, p > .05) was −72.58 ± 3.08 mv, the reversal potential (GluN1/2D; agonist (100 µM glutamate + 100 µM glycine) + 100 µM CNS4, absence of Mg^2+, agonist alone −54.2 ± 4.5, p > .05) was −56.05 ± 5.8 mv and the “current response, agonist alone induced maximum current normalized to 100%” value (GluN1/2B [3]) was 193.22% ± 21.2%. The “voltage dependence of effect” value (GluN1/2A [4]; [11]) was “no voltage dependence effect”, the reversal potential (GluN1/2A [4]; agonist (100 µM glutamate + 100 µM glycine) + 40 µM MgCl2 + 100 µM CNS4, without CNS4 −20.06 ± 2.6, p > .05) was −17.57 ± 2.0 mv and the reversal potential (GluN1/2A [4]; agonist (100 µM glutamate + 100 µM glycine) + 100 µM CNS4, absence of Mg^2+, agonist alone −17.42 ± 2.2, p > .05) was −17.54 ± 1.8 mv. For the same compound, the “Na^+ signal, mean rfu” value ([5]; 100 µM CNS4 + 0.3 µM NMDA, p < .0001 vs CNS4 with no NMDA (412544)) was 391591 rfu, the “Na^+ signal compared to 300 µM NMDA alone” value ([5]; 100 µM CNS4 + 30–300 µM NMDA) was “significantly higher Na^+ signal” and the “Na^+ signal, mean rfu” value ([5]; 100 µM CNS4 + glutamate + MK801, p = .0024 vs glutamate + MK801 ([…])) was 519331 rfu. The “Na^+ signal, mean rfu” value ([5]; 100 µM CNS4 alone, Figure 8B) was 538755 rfu, the “Na^+ signal, mean rfu” value ([5]; 100 µM CNS4 with no NMDA, Figure 7A) was 412544 rfu and the “current response, agonist alone induced maximum current normalized to 100%” value (GluN1/2C [6]; 100 µM CNS4, 0.3 µM glutamate + 100 µM glycine, −60 mV, average ± SEM) was 506.34% ± 52.9%. The “potentiation of receptor current” value (GluN1/2C [6]; higher concentration (100 & 300 µM) of glutamate, almost no effect) was less than 20%, the “voltage dependence of effect” value (GluN1/2B [7]; [11]) was “no voltage dependence effect” and the reversal potential (GluN1/2B [7]; agonist (100 µM glutamate + 100 µM glycine) + 40 µM MgCl2 + 100 µM CNS4, without CNS4 −11.66 ± 1.25, p > .05) was −6.9 ± 0.74 mv. The reversal potential (GluN1/2B [7]; agonist (100 µM glutamate + 100 µM glycine) + 100 µM CNS4, absence of Mg^2+, agonist alone −11.66 ± 1.55, p > .05) was −10.89 ± 1.9 mv, the “inward current reversal potential” value (GluN1/2C [8]; 0.3 µM glutamate + 100 µM glycine + CNS4, absence of Mg2+, without CNS4 -86.44± 0.74, p<0.0001, n=7) was -75.15±1.33 mv and the “inward current reversal potential” value (GluN1/2C [8]; 0.3 µM glutamate + 100 µM glycine + CNS4, presence of Mg2+, without CNS4 -88.59± 0.30, p<0.001, n=7) was -79.25±1.87 mv. The “voltage dependence of effect” value (GluN1/2C [8]; [11]) was “no voltage dependence effect”, the reversal potential (GluN1/2C [8]; agonist (100 µM glutamate + 100 µM glycine) + 40 µM MgCl2 + 100 µM CNS4, without CNS4 −81.75 ± 1.37, p < .01) was −75.53 ± 0.59 mv and the reversal potential (GluN1/2C [8]; agonist (100 µM glutamate + 100 µM glycine) + 100 µM CNS4, absence of Mg^2+, agonist alone −69.55 ± 1.51, p < .01) was −63.64 ± 0.80 mv. The “current response, agonist alone induced maximum current normalized to 100%” value (GluN1/2A [9]; 0.3 µM glutamate + 100 µM glycine) was “negligible effect”, the “current response, agonist alone induced maximum current normalized to 100%” value (GluN1/2A [9]; 100 µM glutamate + 100 µM glycine) was 186.08% ± 23.5% and the “current response, agonist alone induced maximum current normalized to 100%” value (GluN1/2A [9]; 300 µM glutamate + 100 µM glycine) was 122.87% ± 9.9%. The “deactivation time constant tau (τ)” value (GluN1/2A [10]; 100 µM CNS4 + Ag (100 µM glutamate + 100 µM glycine), n = 19, Ag alone 710.9 ± 98.27 ms, n = 9, p < .05) was 1067 ± 104.3 ms, the “effect on maximum inducible current” value (GluN1/2A [10]; 100 µM CNS4 co‐applied with agonist, 0.3 µM glutamate + 100 µM glycine) was “significantly potentiated” and the “effect on peak current amplitude” value (GluN1/2A [10]; 100 µM CNS4 co‐applied with agonist, 100 µM glutamate + 100 µM glycine) was “significantly inhibited”.
